# Data reported in US8377981B2, “CBI derivatives subject to reductive activation” (The Scripps Research Institute, priority 2007, dated 2013).
# Like-named read-outs stand apart in the source and are kept apart here.
# Columns and labels:
# [1] = tested on: L1210 cell line (mouse leukemia); test: Cytotoxic activity, L1210 cell line; assay type: cell-based
# Protocol: (§1) The O-amino phenol derivatives bearing the N—O prodrug linkages and the various N-acyl substituents were assayed for cytotoxic activity alongside the parent drugs CBI-TMI (2) (Boger, D. L.; Yun, W. J. Am. Chem. Soc. 1994, 116, 7996) and mitomycin C (Boger, D. L.; et al. Bioorg. Med. Chem. Lett. 1991, 1, 115; Boger, D. L.; et al. Bioorg. Med. Chem. 1995, 3, 1429) as well as the two control standards 9 and 10 incapable of free phenol release. Three cell lines were examined including a standard L1210 cell line (mouse leukemia) as well as the mitomycin-sensitive (H460, expresses high levels of DT-Diaphorase) and resistant (H596, lacks DT-Diaphorase) non small cell lung cancer (NSCLC) cell lines, with results shown in the Table below.
# [2] = tested on: H460 (mitomycin-sensitive, expresses high levels of DT-Diaphorase) non small cell lung cancer (NSCLC) cell line; test: Cytotoxic activity, H460 cell line; assay type: cell-based
# Protocol: as §1
# [3] = tested on: H596 (mitomycin-resistant, lacks DT-Diaphorase) non small cell lung cancer (NSCLC) cell line; test: Cytotoxic activity, H596 cell line; assay type: cell-based
# Protocol: as §1
# [4] = tested on: L1210 murine leukemia implanted i.p. into DBA/2J mice; test: In vivo antitumor activity, L1210 i.p. in DBA/2J mice (30% DMSO in 0.1% glucose); design: species or system mouse; conditions: for Surviving Mice: 365 days; for weight loss of treated animals: days 30-100, highest dosing
# Excerpt: The prodrug 8 was examined for in vivo efficacy alongside the parent drug 3 in a standard antitumor model enlisting L1210 murine leukemia implanted i.p. into DBA/2J mice. This model has been reported to respond well to the parent drugs of related compounds (Li, L. H.; et al. Invest. New Drugs 1991, 9, 137) and is a system that collaborators through the years have used to assess an extensive series of (+)-CBI-indole2 analogues. Although not published, these latter studies provided the foundation on which examination of 8 is based.
# With use the dose range (10-100 μg/kg) and the dosing schedule (administered three times i.p. on days 1, 5, and 9) found suitable for related parent drugs including (+)-CBI-indole2 (3) (Boger, D. L.; et al. Bioorg. Med. Chem. Lett. 1991, 1, 115; Boger, D. L.; et al. Bioorg. Med. Chem. 1995, 3, 1429), the prodrug 8 was examined as is shown in the Table below.
# DBA/2J mice were purchased from Jackson Laboratory (Bar Harbor, Me.) and housed in the animal facility at The Scripps Research Institute. L1210 tumor cells, originally isolated from DBA/2 mice, were cultured in DMEM medium containing 5% fetal calf serum. For tumor implantation, DBA/2J mice were i.p. injected with 1×10^5 L1210 cells at day 0.
# Compounds 3 and 8 were formulated with 30% DMSO plus 0.1% glucose solution. Treatment doses of drugs (0, 10, 30, 100 µg/kg wt. of animal) were i.p. injected consecutively on day 1, 5 and 9. The study was performed with six mice per group. Tumor growth in the peritoneal cavity was monitored daily and the death of animals was recorded. If necessary, weights of animals were measured once a week. To date this monitoring of the animals has lasted 365 days.
# [5] = tested on: L1210 murine leukemia implanted i.p. into DBA/2J mice; test: In vivo antitumor activity, second site (neat DMSO, terminated after 120 days); design: species or system mouse; conditions: for Surviving Mice: still living after 120 days
# Protocol: Confirming these observations, an analogous antitumor assessment was carried out independently at a second site utilizing a slightly different and harsher protocol for drug administration (neat DMSO vs 30% DMSO in 0.1% glucose).
# In the above Table, the second column is the dose in mg/kg of body weight of the animal that is administered i.p. (into the intraperitoneal cavity) on days 1, 5, and 9. The surviving mice are the number of mice that are still living after 120 days and the experiment was then terminated.
# An analogous study with 10 mice per group was performed at the University of Kansas with the distinction that the compounds were administered in neat DMSO (0, 10, 30, 60, 100 µg/kg wt. of animal) and the study was terminated after 120 days.
# [6] = Chemical stability and reactivity of the N-acyl O-amino phenol derivatives; assay type: physicochemical; conditions: for stability to acidic conditions: TFA-CH2Cl2, 4 N HCl-EtOAc
# [7] = Mus musculus, L1210, read-out: IC50 (nM) L1210, natural enantiomer series, CBI-TMI derivatives
# [8] = unnatural enantiomer series, CBI-TMI derivatives, read-out: IC50 (nM) L1210
# [9] = Homo sapiens, NCI-H460, read-out: IC50 (nM) H460
# [10] = unnatural enantiomer series, CBI-TMI derivatives, read-out: IC50 (nM) H460
# [11] = Homo sapiens, NCI-H596, read-out: IC50 (nM) H596
# [12] = unnatural enantiomer series, CBI-TMI derivatives, read-out: IC50 (nM) H596
# [13] = unnatural enantiomer series, CBI-indole2 derivatives, read-out: IC50 (nM) L1210
# [14] = unnatural enantiomer series, CBI-indole2 derivatives, read-out: IC50 (nM) H460
# [15] = Homo sapiens, NCI-H596, natural enantiomer series, CBI-indole2 derivatives, read-out: IC50 (nM) H596
# [16] = unnatural enantiomer series, CBI-indole2 derivatives, read-out: IC50 (nM) H596
# [17] = 10 μg/kg i.p. days 1, 5, 9, neat DMSO
# [18] = 30 μg/kg i.p. days 1, 5, 9, neat DMSO
# [19] = 60 μg/kg i.p. days 1, 5, 9, neat DMSO
# [20] = 100 μg/kg i.p. days 1, 5, 9, neat DMSO
structure (smiles),measurement,setting,value
"COc1cc2cc(C(=O)N3C[C@@H](CCl)c4c3cc(O)c3ccccc43)[nH]c2c(OC)c1OC [Compound 2, seco-CBI-TMI, reference compound]",IC50,[1]; [7],0.04 nM
same,IC50,[1]; [8],5 nM
same,IC50,[2]; [9],0.5 nM
same,IC50,[2]; [10],50 nM
same,fold lower sensitivity of H596 than H460,[3]; H596 versus H460,10 fold
same,IC50,[3]; [11],5 nM
same,IC50,[3]; [12],300 nM
"O=C(Nc1ccc2[nH]c(C(=O)N3C[C@@H](CCl)c4c3cc(O)c3ccccc43)cc2c1)c1cc2ccccc2[nH]1 [Compound 3, seco-CBI-indole2, reference compound]",IC50,"[1]; Mus musculus, L1210, natural enantiomer series, CBI-indole2 derivatives, read-out: IC50 (nM) L1210",0.03 nM
same,IC50,[1]; [13],0.7 nM
same,IC50,"[2]; Homo sapiens, NCI-H460, natural enantiomer series, CBI-indole2 derivatives, read-out: IC50 (nM) H460",0.2 nM
same,IC50,[2]; [14],6 nM
same,IC50,[3]; [15],2 nM
same,IC50,[3]; [16],40 nM
same,Mean Survival Period (MSP),"[4]; 10 μg/kg i.p. days 1, 5, 9",34 days
same,Treated/Control (MSP × 100),"[4]; 10 μg/kg i.p. days 1, 5, 9",170
same,Surviving Mice,"[4]; 10 μg/kg i.p. days 1, 5, 9",0/6
same,Mean Survival Period (MSP),"[4]; 30 μg/kg i.p. days 1, 5, 9",>115 days
same,Treated/Control (MSP × 100),"[4]; 30 μg/kg i.p. days 1, 5, 9",>580
same,Surviving Mice,"[4]; 30 μg/kg i.p. days 1, 5, 9",1/6
same,Mean Survival Period (MSP),"[4]; 100 μg/kg i.p. days 1, 5, 9",125 days
same,Treated/Control (MSP × 100),"[4]; 100 μg/kg i.p. days 1, 5, 9",625
same,Surviving Mice,"[4]; 100 μg/kg i.p. days 1, 5, 9",0/6
same,weight loss of treated animals,[4],weight loss that was evident
same,fate of surviving mice at day 90,[4]; prolonged management beyond day 90,eventually expired due to drug administration related complications
same,Mean Survival Period (MSP),[5]; [17],>60 days
same,Treated/Control (MSP × 100),[5]; [17],>271
same,Surviving Mice,[5]; 10 μg/kg,3/10
same,Mean Survival Period (MSP),[5]; [18],>65 days
same,Treated/Control (MSP × 100),[5]; [18],>295
same,Surviving Mice,[5]; 30 μg/kg,3/10
same,Mean Survival Period (MSP),[5]; [19],>71 days
same,Treated/Control (MSP × 100),[5]; [19],>324
same,Surviving Mice,[5]; 60 μg/kg,3/10
same,Mean Survival Period (MSP),[5]; [20],11 days
same,Treated/Control (MSP × 100),[5]; [20],52
same,Surviving Mice,[5]; 100 μg/kg,0/10
COc1cc2cc(C(=O)N3C[C@@H](CCl)c4c3cc(ONC(C)=O)c3ccccc43)[nH]c2c(OC)c1OC [Compound 5],IC50,[1]; [7],0.3 nM
same,IC50,[2]; [9],0.7 nM
same,IC50,[3]; [11],7 nM
same,stability on long term storage,[6],withstanding even long term storage effectively
COc1cc2cc(C(=O)N3C[C@@H](CCl)c4c3cc(ON(C(C)=O)C(=O)OC(C)(C)C)c3ccccc43)[nH]c2c(OC)c1OC [Compound 6],IC50,[1]; [7],0.2 nM
same,IC50,[2]; [9],0.6 nM
same,IC50,[3]; [11],5 nM
same,stability to acidic conditions,[6],surprisingly robust to acidic conditions
COc1cc2cc(C(=O)N3CC(CCl)c4c3cc(ON3C(=O)c5ccccc5C3=O)c3ccccc43)[nH]c2c(OC)c1OC (stereo not shown) [Compound 7],IC50,[1]; [8],60 nM
same,IC50,[2]; [10],600 nM
same,IC50,[3]; [12],6000 nM
COc1cc2cc(C(=O)N3C[C@@H](CCl)c4c3cc(ON3C(=O)c5ccccc5C3=O)c3ccccc43)[nH]c2c(OC)c1OC [Compound 7],IC50,[1]; [7],0.06 nM
same,IC50,[2]; [9],0.5 nM
same,IC50,[3]; [11],5 nM
same,stability to acidic conditions,[6],surprisingly robust to acidic conditions
same,stability on long term storage,[6],noticeably deteriorating over time
CC(C)(C)OC(=O)NOc1cc2c(c3ccccc13)[C@H](CCl)CN2C(=O)c1cc2cc(NC(=O)c3cc4ccccc4[nH]3)ccc2[nH]1 [Compound 8],IC50,"[1]; Mus musculus, L1210, read-out: IC50 (nM) L1210, natural enantiomer series, CBI-indole2 derivatives",0.05 nM
same,IC50,"[1]; Mus musculus, L1210, text range over L1210 and H460, natural enantiomer",0.03 to 0.2 nM
same,potency compared with CBI-indole2 (3),[1]; in each cell line examined,essentially equipotent
same,times more active than mitomycin C,[1]; natural enantiomer,100-1000 times
same,fold less active than the natural enantiomer,[1]; unnatural enantiomer of prodrug 8,10-100 fold
same,IC50,[2]; [9],0.3 nM
same,IC50,[3]; [15],4 nM
same,Mean Survival Period (MSP),"[4]; 10 μg/kg i.p. days 1, 5, 9",25 days
same,Treated/Control (MSP × 100),"[4]; 10 μg/kg i.p. days 1, 5, 9",120
same,Surviving Mice,"[4]; 10 μg/kg i.p. days 1, 5, 9",0/6
same,Mean Survival Period (MSP),"[4]; 30 μg/kg i.p. days 1, 5, 9",>145 days
same,Treated/Control (MSP × 100),"[4]; 30 μg/kg i.p. days 1, 5, 9",>730
same,Surviving Mice,"[4]; 30 μg/kg i.p. days 1, 5, 9",2/6
same,Mean Survival Period (MSP),"[4]; 100 μg/kg i.p. days 1, 5, 9",>310 days
same,Treated/Control (MSP × 100),"[4]; 100 μg/kg i.p. days 1, 5, 9",>1550
same,Surviving Mice,"[4]; 100 μg/kg i.p. days 1, 5, 9",5/6
same,weight loss of treated animals,[4],little or no weight loss
same,Mean Survival Period (MSP),[5]; [17],>46 days
same,Treated/Control (MSP × 100),[5]; [17],>210
same,Surviving Mice,[5]; 10 μg/kg,2/10
same,Mean Survival Period (MSP),[5]; [18],>51 days
same,Treated/Control (MSP × 100),[5]; [18],>232
same,Surviving Mice,[5]; 30 μg/kg,2/10
same,Mean Survival Period (MSP),[5]; [19],>93 days
same,Treated/Control (MSP × 100),[5]; [19],>425
same,Surviving Mice,[5]; 60 μg/kg,7/10
same,Mean Survival Period (MSP),[5]; [20],>63 days
same,Treated/Control (MSP × 100),[5]; [20],>288
same,Surviving Mice,[5]; 100 μg/kg,3/10
same,efficacy compared with free drug 3,"[5]; deaths due to the disease, tumor counts, tumor volume","comparable or superior in terms of reducing deaths due to the disease, tumor counts, and tumor volume"
same,toxicity of administration compared with free drug 3,"[5]; neat DMSO, 120 days",significantly less toxic than free drug 3
"CO[C@@]12[C@H](COC(N)=O)C3=C(C(=O)C(C)=C(N)C3=O)N1C[C@@H]1N[C@@H]12 [mitomycin C, reference compound]",IC50,"[1]; natural enantiomer series, CBI-TMI derivatives, read-out: IC50 (nM) L1210",40 nM
same,IC50,"[1]; natural enantiomer series, CBI-indole2 derivatives, read-out: IC50 (nM) L1210",40 nM
same,IC50,"[1]; text range over L1210 and H460, read-out: IC50",20 to 40 nM
same,IC50,[1]; [8],40 nM
same,IC50,[1]; [13],40 nM
same,IC50,"[2]; natural enantiomer series, CBI-TMI derivatives, read-out: IC50 (nM) H460",20 nM
same,IC50,"[2]; natural enantiomer series, CBI-indole2 derivatives, read-out: IC50 (nM) H460",20 nM
same,IC50,[2]; [10],20 nM
same,IC50,[2]; [14],20 nM
same,IC50,"[3]; mitomycin-resistant H596 cell line, read-out: IC50",5000 nM
same,IC50,"[3]; natural enantiomer series, CBI-TMI derivatives, read-out: IC50 (nM) H596",5000 nM
same,IC50,"[3]; natural enantiomer series, CBI-indole2 derivatives, read-out: IC50 (nM) H596",5000 nM
same,IC50,[3]; [12],5000 nM
same,IC50,[3]; [16],5000 nM
